Measurements: patent US20150038464A1, “METHODS OF INCREASING LIGHT RESPONSIVENESS IN A SUBJECT WITH RETINAL DEGENERATION” (The United States Government as represented by the …, priority 2012, published 2015)

Assays:
[1] = tested on: P23H rat RGCs; assay: Light-evoked responses (intensity-response curves) of retinal ganglion cells recorded extracellularly from isolated P23H rat retina; type: cell-based; details: 500 nM JNJ16259685
Description: Sprague-Dawley (SD) rats (age range 13-44 weeks) and P23H-line 1 homozygous rats (age range 23-42 weeks) were used in this study. Both the SD rats and P23H rats were bred and housed in the same facility. Breeding pairs of SD rats were obtained from Harlan Laboratories (Indianapolis, Ind.). Breeding pairs of P23H-line 1 homozygous rats were generously donated by Dr. Matthew LaVail (University of California San Francisco, Calif.). The room light was kept on a 12 hour light/dark cycle using standard fluorescent lighting. During the light cycle the illumination at the level of the cages was 100-200 lux. All animal care procedures and experimental methods were approved by the appropriate Institutional Animal Care and Use Committee.
On the day of an experiment, a rat was euthanized with sodium pentobarbital (150 mg/kg, i.p.), and the eyes were removed and hemisected under normal room light. […]
Light from a mercury arc lamp illuminated an aperture that was focused on the retina from above through the 4× objective of the microscope. The image produced on the retina was either a 250-μm or 1.5-mm diameter spot, which was centered on the recorded RGC. […] The intensity of the unattenuated light stimulus on the retina measured with a spectroradiometer (ILT900-R, International Light Technologies, Peabody, Mass.) was 8.5×10^17 photons/cm^2/s. […]

[2] = tested on: P23H rat RGCs; assay: as above; type: cell-based; details: 16 P23H rat RGCs, 500 nM JNJ16259685

## CO[C@H]1CC[C@@H](C(=O)c2ccc3nc4c(cc3c2)CCCO4)CC1 [JNJ16259685, 3,4-dihydro-2H-pyranol[2,3-b]quinolin-7-yl-(cis-4-methoxycyclohexyl)-methanone]
[1]; 16 P23H rat RGCs (15 ON-center, one OFF-center)
  average increase in light sensitivity: 0.56 log units
[1]; 16 P23H rat RGCs, P=0.007
  increase in maximum peak response: 9.9%
[2]; mean±SD, before drug 0.89±0.41
  dynamic operating range with drug: 1.05±0.42 log unit
[2]; mean±SD, before drug 162±65
  maximum peak response with drug: 178±64 spikes/s
[2]
  factor by which the light the cells responded to was less intense than without drug: ~4 fold
[2]; not significant (P=0.239)
  increase in dynamic operating range: 18%
